Test results taken from patent publication US9945862B2, “Biomarkers for predicting and assessing responsiveness of thyroid and kidney cancer subjects to lenvatinib compounds” (Eisai R&D Management Co., Ltd., priority 2011, dated 2018).

Tested on: differentiated thyroid cancer patients
Assay: Best overall response / tumor response in differentiated thyroid cancer patients treated in phase II with E7080, by tumor mutation status
Assay type: in vivo, human
Text: This experiment was directed at identifying amino acid mutations that are useful in predicting whether subjects respond to treatment with E7080 using three criteria of response: best overall response, tumor shrinkage, and progression free survival.
Tissue samples were obtained at surgery before the patients had received any therapy comprising E7080 and were routinely processed with formalin fixed, paraffin embedded tissues (FFPE). The protocol that was used was approved by the institutional review board, and informed consent was obtained from each subject. Tumor tissue samples from 27 patients, for which tissues were available, were used for mutation analysis. DNA was isolated from FFPE tumor blocks collected from patients participating in the trial. Genomic DNA was extracted from two to five 10 micron unstained sections by deparaffinization and Qiagen DNA Mini Kit Tissue Protocol with minor modification. For mutation detection, the SEQUENOM® (San Diego, Calif.) platform and the OncoCarta™ Panel v1.0 and OncoCarta™ Panel v3.0 were used (see, www.sequenom.com/Files/Genetic-Analysis—Graphics/All-Application—PDFs/AssayExplorer2010_1110-Web/). Sequenom's OncoCarta™ Panels are a set of pre-designed and pre-validated assays for efficient mutation screening. The OncoCarta™ Panel v1.0 genes and the number of mutations (in parentheses) are: ABL1 (14); AKT1 (7); AKT2 (2); BRAF (25); CDK4 (2); EGFR (40); ERBB2 (9); FGFR1 (2); FGRF3 (7); FLT3 (3); HRAS (10); JAK2 (1); KIT (32); KRAS (16); MET (5); NRAS (19); PDGFRA (11); PIK3CA (14); and RET (6). The OncoCarta™ Panel v3.0 genes and the number of mutations (in parentheses) are: ABL1 (2) AKT1 (1); APC (12); BRAF (19); CDKN2A (7); CSF1R (6); CTTNB1 (28); EGFR (32); ERBB2 (2); FLT3 (3); HRAS (2); JAK3 (3); KIT (3); KRAS (5); MET (6); MLH1 (1); MYC (6); PDGFRA (11); PIK3CA (4); PTEN (14); RB1 (11); RET (13); SRC (1); STK11 (12); P53 (7); and VH1 (7). […]
DNA was amplified using the OncoCarta™ PCR primer pools, unincorporated nucleotides were inactivated by shrimp alkaline phosphatase (SAP), and a single base extension reaction was performed using extension primers that hybridize immediately adjacent to the mutations and a custom mixture of nucleotides. Salts were removed by the addition of a cation exchange resin. Multiplexed reactions were spotted onto the SpectroChipII, and mutations, if present, were resolved by MALDI-TOF on the Compact Mass Spectrometer (Sequenom®, San Diego, Calif.). The OncoCarta™ Panel v1.0 (Sequenom®, San Diego, Calif.) consists of 24 pools of primer pairs and 24 pools of extension primers, and has the capacity to detect 225 mutations in 19 genes. The OncoCarta™ Panel v 3.0 consists of 24 pools of primer pairs and 24 pools of extension primers, and has the capacity to detect 218 mutations in 26 genes. Each pool consists of 5-9 primer pairs in the PCR reaction. Two types of assays have been designed in the OncoCarta panel, referred to as simple and complex. The simple assays are those in which a single assay is able to detect the amino acid changes at that codon. The complex assays are those that require more than one assay to identify codon changes or deletions and insertion, and thus are able to detect multiple different amino acid substitutions or deletions. An example of a complex assay involves the use of the KRAS_1 and KRAS_2 assays, which interrogates 2 different nucleotide positions within codon 12 and together identify all codon 12 amino acid changes. In the KRAS G12R mutation, the mutant allele has the codon CGT (Arginine) in contrast to the wild type allele which has the GGT (Glycine) codon. […]

[1] = BRAF.KRAS.NRAS (any of gene) MU
[2] = BRAF.KRAS.NRAS (any of gene) WT
[3] = BRAF.KRAS.NRAS.VHL (any of gene) MU
[4] = BRAF.KRAS.NRAS.VHL (any of gene) WT

With `COc1cc2nccc(Oc3ccc(NC(=O)NC4CC4)c(Cl)c3)c2cc1C(N)=O` [E7080, 4-(3-chloro-4-(cyclopropylaminocarbonyl)aminophenoxy)-7-methoxy-6-quinolinecarboxamide] the “Number of patients with BOR PD” value [1] was 0, the “Number of patients with BOR PR” value [1] was 10 and the “Number of patients with BOR SD” value [1] was 1. For the same compound, the “Number of patients with BOR PD” value [2] was 2, the “Number of patients with BOR PR” value [2] was 3 and the “Number of patients with BOR SD” value [2] was 6. For the same compound, the “Number of patients with BOR PD” value [3] was 1, the “Number of patients with BOR PR” value [3] was 10 and the “Number of patients with BOR SD” value [3] was 1. The “Number of patients with BOR PD” value [4] was 1, the “Number of patients with BOR PR” value [4] was 3 and the “Number of patients with BOR SD” value [4] was 6. For the same compound, the “Number of patients with BOR PD” value (BRAF.KRAS.VHL (any of gene) MU) was 2, the “Number of patients with BOR PR” value (BRAF.KRAS.VHL (any of gene) MU) was 8 and the “Number of patients with BOR SD” value (BRAF.KRAS.VHL (any of gene) MU) was 0. For the same compound, the “Number of patients with BOR PD” value (BRAF.KRAS.VHL (any of gene) WT) was 0, the “Number of patients with BOR PR” value (BRAF.KRAS.VHL (any of gene) WT) was 8 and the “Number of patients with BOR SD” value (BRAF.KRAS.VHL (any of gene) WT) was 5. The “Number of patients with BOR PD” value (BRAF.NRAS (any of gene) MU) was 0, the “Number of patients with BOR PR” value (BRAF.NRAS (any of gene) MU) was 8 and the “Number of patients with BOR SD” value (BRAF.NRAS (any of gene) MU) was 1. For the same compound, the “Number of patients with BOR PD” value (BRAF.NRAS (any of gene) WT) was 2, the “Number of patients with BOR PR” value (BRAF.NRAS (any of gene) WT) was 5 and the “Number of patients with BOR SD” value (BRAF.NRAS (any of gene) WT) was 6. For the same compound, the “Number of patients with BOR PD” value (BRAF.VHL (any of gene) MU) was 2, the “Number of patients with BOR PR” value (BRAF.VHL (any of gene) MU) was 6 and the “Number of patients with BOR SD” value (BRAF.VHL (any of gene) MU) was 0. The “Number of patients with BOR PD” value (BRAF.VHL (any of gene) WT) was 0, the “Number of patients with BOR PR” value (BRAF.VHL (any of gene) WT) was 10 and the “Number of patients with BOR SD” value (BRAF.VHL (any of gene) WT) was 5. The “Number of patients with BOR PD” value (KRAS.NRAS (any of gene) MU) was 0, the “Number of patients with BOR PR” value (KRAS.NRAS (any of gene) MU) was 8 and the “Number of patients with BOR SD” value (KRAS.NRAS (any of gene) MU) was 0. The “Number of patients with BOR PD” value (KRAS.NRAS (any of gene) WT) was 2, the “Number of patients with BOR PR” value (KRAS.NRAS (any of gene) WT) was 5 and the “Number of patients with BOR SD” value (KRAS.NRAS (any of gene) WT) was 7. The “Number of patients with BOR PD” value (KRAS.NRAS.VHL (any of gene) MU) was 1, the “Number of patients with BOR PR” value (KRAS.NRAS.VHL (any of gene) MU) was 8 and the “Number of patients with BOR SD” value (KRAS.NRAS.VHL (any of gene) MU) was 0. The “Number of patients with BOR PD” value (KRAS.NRAS.VHL (any of gene) WT) was 1, the “Number of patients with BOR PR” value (KRAS.NRAS.VHL (any of gene) WT) was 5 and the “Number of patients with BOR SD” value (KRAS.NRAS.VHL (any of gene) WT) was 7. For the same compound, the “Patients with partial response (PR)” value (patients with either an NRAS or KRAS mutation) was 8 out of 8, the “Patients with partial response (PR)” value (patients without mutations in NRAS and KRAS) was 5 out of 14 and the “Clinical outcome in differentiated thyroid cancer patients” value (phase II) was “Tumor response and prolonged disease stabilization were observed”.
